# Results: patent US12421280B2, “Insulin like growth factor binding protein bioactive peptide fragments” (Northwestern University, priority 2019, dated 2025)
# Values joined by “and” are separate entries in the source; they are usually repeats but may differ in a detail not shown here. Equal entries are not always repeated.
# B1: IGFBP2: insulin-like growth factor binding protein 2 (peprotech, USA); positive control in Example 2 (protein, UniProt P18065 36-325, looked up)
# Insulin-like growth …: AEVLFRCPPCTPERLAACGPPPVAPPAAVAAVAGGARMPCAELVREPGCGCCSVCARLEGEACGVYTPRCGQGLRCYPHPGSELPLQALVMGEGTCEKRRDAEYGASPEQVADNGDDHSEGGLVENHVDSTMNMLGGGGSAGRKPLKSGMKELAVFREKVTEQHRQMGKGGKHHLGLEEPKKLRPPPARTPCQQELDQVLERISTMRLPDERGPLEHLYSLHIPNCDKHGLYNLKQCKMSLNGQRGECWCVNPNTGKLIQGAPTIRGDPECHLFYNEQQEARGVHTQRMQ
# B2: IGFBP1: insulin-like growth factor binding protein 1 (peprotech, USA) (protein, UniProt P08833 26-259, looked up)
# Insulin-like growth …: APWQCAPCSAEKLALCPPVSASCSEVTRSAGCGCCPMCALPLGAACGVATARCARGLSCRALPGEQQPLHALTRGQGACVQESDASAPHAAEAGSPESPESTEITEEELLDNFHLMAPSEEDHSILWDAISTYDGSKALHVTNIKKWKEPCRIELYRVVESLAKAQETSGEEISKFYLPNCNKNGFYHSRQCETSMDGEAGLCWCVYPWNGKRIPGSPEIRGDPNCQIYFNVQN
# B3: IGFBP6: insulin-like growth factor binding protein 6 (peprotech, USA) (protein, UniProt P24592 28-240, looked up)
# Insulin-like growth …: RCPGCGQGVQAGCPGGCVEEEDGGSPAEGCAEAEGCLRREGQECGVYTPNCAPGLQCHPPKDDEAPLRALLLGRGRCLPARAPAVAEENPKESKPQAGTARPQDVNRRDQQRNPGTSTTPSQPNSAGVQDTEMGPCRRHLDSVLQQLQTEVYRGAQTLYVPNCDHRGFYRKRQCRSSQGQRRGPCWCVDRMGKSLPGSPDGNGSSSCPTGSSG
# B4: IGFBP4: insulin-like growth factor binding protein 4 (peprotech, USA) (protein, UniProt P22692 22-258, looked up)
# Insulin-like growth …: DEAIHCPPCSEEKLARCRPPVGCEELVREPGCGCCATCALGLGMPCGVYTPRCGSGLRCYPPRGVEKPLHTLMHGQGVCMELAEIEAIQESLQPSDKDEGDHPNNSFSPCSAHDRRCLQKHFAKIRDRSTSGGKMKVNGAPREDARPVPQGSCQSELHRALERLAASQSRTHEDLYIIPIPNCDRNGNFHPKQCHPALDGQRGKCWCVDRKTGVKLPGGLEPKGELDCHQLADSFRE
# Key:
# Assay type in all cases: in vivo, rat
# male SD rats = assay: Porsolt forced swim test; conditions: 1 hr post-dosing; for antidepressant-like effect in the Porsolt test as measured by floating time, compared with ketamine: 1 μg/kg i.v., FIG. 1A; for antidepressant-like effect in the Porsolt test (floating time), compared with IGFBP2: dose not specified, FIG. 2 legend; for antidepressant-like effect in the Porsolt test as measured by floating time, compared with IGFBP2: FIG. 2
# Description: Adult male (2-3 month old) Sprague-Dawley (SD) rats were purchased from Harlan (USA) for the Porsolt Forced Swim Test. Rats were housed in Lucite cages with aspen wood chip bedding, maintained on a 12:12 light:dark cycle (lights on at 5 AM), and given ad libitum access to Purina lab chow (USA) and tap water throughout the study. All experiments were approved by the Sai Life Sciences (India) Animal Care and Use Committees.
# Porsolt forced swim testing was conducted as described in (Burgdorf et al., Neuropsychopharmacology, (2013), 38(5):729-742). Rats were dosed with IGFBP1-7 (1 microgram/kg i.v.; peprotech, USA) (3 mg/kg, i.v.), ketamine ([…] i.v.; Sigma, USA) or 0.9% sterile saline vehicle (1 ml/kg, i.v.). Injections were made in the lateral tail vein and rats were tested 1 hr post-dosing. Animals were placed in a 46 cm tall×20 cm in diameter clear glass tube filled to 30 cm with tap water (23±1° C.) for 15 min on the first day (habituation) and 5 min on the subsequent test day. Water was changed after every other animal. Animals were videotaped, and tapes were scored offline by a blind experimenter with high inter-rater reliability (Pearson's r>0.9). Floating time (sec) was defined as the minimal amount of effort required to keep the animal's head above and diving (number of incidences) was registered when the whole body of the animal was submersed and the animal's head was facing towards the bottom of the tank.
# Based on the results of the Porsolt test in Example 1, IGFBP2, IGFBP3, and IGFBP5 were identified as the best binding proteins for inducing robust antidepressant-like effects without side effects. Given the structural similarities between all 7 IGFBPs, an amino acid sequence homology was performed to identify sequences that were homologues between IGFBP2, IGFBP3, and IGFBP5 and were not consistently shared with IGFBP1, IGFBP6 and IGFBP7. Based on this analysis, three peptides were identified (KHGLYNLKQCKMSLNGQ (SEQ ID NO: 1); PKKLRP (SEQ ID NO: 2); RGD). These peptides were synthesized using standard solid phase peptide chemistry and were assessed in the Porsolt Test as described above.
# rats [1] = assay: Positive emotional learning: hedonic 50-kHz ultrasonic vocalizations during heterospecific play, with center crosses in the same assay; conditions: 0.01, 0.1, 1, 10, and 30 mg/kg vs. vehicle, P<0.05
# Description: (§1) These experiments were conducted as described in Burgdorf et al. (Int. J. Neuropsychopharmacol., 2017, 20:476-484).
# rats [2] = assay: Contextual fear extinction (model of PTSD); conditions: 1 mg/kg IV one hour before the first extinction session
# Description: as §1
# [3] = Table 1 raw data, one value per rat, ketamine 10 mg/kg i.v., 5 min test session
molecule,measurement,setting,value
RGD,floating (floating time),"male SD rats; Table 2 raw data, one value per rat, dose 9 (unit not given)",115.4 s and 132.9 s and 113.1 s and 125.8 s and 108.2 s and 140.6 s and 139.7 s and 127.8 s
same,floating (floating time),"male SD rats; Table 2 raw data, one value per rat, dose 90 (unit not given)",137 s and 169 s and 132.7 s and 133.6 s and 81.6 s and 143.4 s and 149.6 s and 123.7 s
"IGFBP7: insulin-like growth factor binding protein 7 (peprotech, USA)","antidepressant-like effect in the Porsolt test as measured by floating time, compared with ketamine",male SD rats; ketamine 10 mg/kg i.v.,equivalent antidepressant-like effect
same,floating (floating time),"male SD rats; Table 1 raw data, one value per rat, IGFBP 1 μg/kg i.v., 5 min test session, listed as BP7",24.5 s and 123.8 s and 52.5 s and 94.4 s and 9.8 s and 30.8 s and 60.1 s
PKKLRP [made by solid phase peptide chemistry],center crosses (index of an anxiolytic drug effect),rats [1]; FIG. 3B,increased
same,positive emotional learning (rates of hedonic ultrasonic vocalizations during heterospecific play),"rats [1]; 1 hr post dosing, FIG. 3A",increased positive emotional learning
same,"antidepressant-like effect in the Porsolt test (floating time), compared with IGFBP2",male SD rats,equivalent antidepressant-like effect as IGFBP2
same,floating (floating time),"male SD rats; Table 2 raw data, one value per rat, dose 20 (low dose, unit not given), listed as PK . . .",16.6 s and 6.6 s and 10.2 s and 26.2 s and 18.2 s and 15.5 s and 22.4 s and 7.6 s
same,floating (floating time),"male SD rats; Table 2 raw data, one value per rat, dose 200 (high dose, unit not given), listed as PK . . .",17.3 s and 4.3 s and 47.8 s and 9 s and 18.4 s and 45.6 s and 2.3 s and 7.7 s
same,"antidepressant-like effect in the Porsolt test as measured by floating time, compared with IGFBP2",male SD rats; high dose,equivalent or superior antidepressant-like effect
same,"antidepressant-like effect in the Porsolt test as measured by floating time, compared with IGFBP2",male SD rats; low dose,equivalent or superior antidepressant-like effect
same,spontaneous recovery (difference in freezing 14 days post dosing versus extinction session 6),rats [2]; FIG. 3D,increased
same,contextual fear extinction across each test day,"rats [2]; sessions 1-6 drug vs. vehicle, P<0.05, FIG. 3C",increased contextual fear extinction
KHGLYNLKQCKMSLNGQ [made by solid phase peptide chemistry],"antidepressant-like effect in the Porsolt test (floating time), compared with IGFBP2",male SD rats,equivalent antidepressant-like effect as IGFBP2
same,floating (floating time),"male SD rats; Table 2 raw data, one value per rat, dose 54 (low dose, unit not given), listed as KH . . .",29.2 s and 26.5 s and 25.2 s and 24.2 s and 43.3 s and 33.4 s and 53.8 s and 27.4 s
same,floating (floating time),"male SD rats; Table 2 raw data, one value per rat, dose 540 (high dose, unit not given), listed as KH . . .",108.7 s and 94.8 s and 121.4 s and 149.1 s and 101.5 s and 105.8 s and 130 s and 147.9 s
same,"antidepressant-like effect in the Porsolt test as measured by floating time, compared with IGFBP2",male SD rats; low dose,equivalent or superior antidepressant-like effect
"IGFBP3: insulin-like growth factor binding protein 3 (peprotech, USA)","antidepressant-like effect in the Porsolt test as measured by floating time, compared with ketamine",male SD rats; ketamine 10 mg/kg i.v.,equivalent antidepressant-like effect as ketamine
same,floating (floating time),"male SD rats; Table 1 raw data, one value per rat, IGFBP 1 μg/kg i.v., 5 min test session, listed as BP3",29.3 s and 35.8 s and 42.8 s and 23.3 s and 84.9 s and 140.5 s and 142.3 s
"CNC1(c2ccccc2Cl)CCCCC1=O (stereo not drawn) [ket, ketamine, reference compound]",diving (number of incidences),male SD rats; [3],0 (6×) and 1
same,floating (floating time),male SD rats; [3],30.5 s and 55 s and 79.5 s and 31.2 s and 59.3 s and 78.1 s and 39.6 s
"IGFBP5: insulin-like growth factor binding protein 5 (peprotech, USA)","antidepressant-like effect in the Porsolt test as measured by floating time, compared with ketamine",male SD rats; ketamine 10 mg/kg i.v.,equivalent antidepressant-like effect as ketamine
same,floating (floating time),"male SD rats; Table 1 raw data, one value per rat, IGFBP 1 μg/kg i.v., 5 min test session, listed as BP5",14.4 sec and 104.6 sec and 55 sec and 8.4 sec and 27.7 sec (2×) and 25.7 sec
B1,"antidepressant-like effect in the Porsolt test as measured by floating time, compared with ketamine",male SD rats; ketamine 10 mg/kg i.v.,equivalent antidepressant-like effect as ketamine
same,floating (floating time),"male SD rats; Table 1 raw data, one value per rat, IGFBP 1 μg/kg i.v., 5 min test session, listed as BP2",59.8 s and 45.5 s and 41.6 s and 43.5 s and 25.7 s and 68.2 s and 83.6 s
same,floating (floating time),"male SD rats; Table 2 raw data, one value per rat, positive control IGFBP2, dose not given, listed as BP2",37.2 s and 67.1 s and 22 s and 35.6 s and 28.2 s and 65.8 s and 44.3 s and 79.1 s
B2,floating (floating time),"male SD rats; Table 1 raw data, one value per rat, IGFBP 1 μg/kg i.v., 5 min test session, listed as BP1",156.8 s and 143.4 s and 67.5 s and 179.1 s and 130.7 s and 96.8 s and 187.9 s
B3,"antidepressant-like effect in the Porsolt test as measured by floating time, compared with ketamine",male SD rats; ketamine 10 mg/kg i.v.,equivalent antidepressant-like effect
same,floating (floating time),"male SD rats; Table 1 raw data, one value per rat, IGFBP 1 μg/kg i.v., 5 min test session, listed as BP6",25.6 s and 36.6 s and 10.9 s and 45 s and 27.2 s and 35.5 s and 36.3 s
B4,floating (floating time),"male SD rats; Table 1 raw data, one value per rat, IGFBP 1 μg/kg i.v., 5 min test session, listed as BP4",32.4 s and 137.2 s and 175.7 s and 189.5 s and 59 s and 64.7 s and 172.9 s
